This is an account of results in ChEMBL document CHEMBL2021888, “Discovery of Novel α4β2 Neuronal Nicotinic Receptor Modulators through Structure-Based Virtual Screening” (ACS Med Chem Lett, 2011).

SMILES strings stand for the structures.

Assay [1] addresses Neuronal acetylcholine receptor; alpha3/beta4 (Homo sapiens, UniProt P30926+P32297). The assay can be described thus: Antagonist activity at human alpha3beta4 nAChR expressed in HEK tsA201 cells assessed as inhibition of epibatidine-induced intracellular calcium accumulation after 1 hr by fluorescence assay. It is filed as functional, cell-based, HEK293. Background: A change in cytosolic calcium serves as a functional read-out for many receptors and channels.

Assay [2] addresses T1, Neuronal acetylcholine receptor; alpha4/beta2 (Homo sapiens, UniProt P17787+P43681). In words: Antagonist activity at human alpha4beta2 nAChR expressed in HEK tsA201 cells assessed as inhibition of epibatidine-induced intracellular calcium accumulation after 1 hr by fluorescence assay. It is filed as functional, cell-based, HEK293.
The target in assay [3] is T1, Neuronal acetylcholine receptor; alpha4/beta2. In words: Antagonist activity at human alpha4beta2 nAChR expressed in HEK tsA201 cells assessed as inhibition of epibatidine-induced intracellular calcium accumulation at 50 uM after 1 hr by fluorescence assay relative to control. The conditions noted are these: HEK293, values are per cent of control. It is filed as functional, cell-based.

One may read the IC50 as the concentration needed to halve the response being measured.

T1 sequence (P17787 whole entry): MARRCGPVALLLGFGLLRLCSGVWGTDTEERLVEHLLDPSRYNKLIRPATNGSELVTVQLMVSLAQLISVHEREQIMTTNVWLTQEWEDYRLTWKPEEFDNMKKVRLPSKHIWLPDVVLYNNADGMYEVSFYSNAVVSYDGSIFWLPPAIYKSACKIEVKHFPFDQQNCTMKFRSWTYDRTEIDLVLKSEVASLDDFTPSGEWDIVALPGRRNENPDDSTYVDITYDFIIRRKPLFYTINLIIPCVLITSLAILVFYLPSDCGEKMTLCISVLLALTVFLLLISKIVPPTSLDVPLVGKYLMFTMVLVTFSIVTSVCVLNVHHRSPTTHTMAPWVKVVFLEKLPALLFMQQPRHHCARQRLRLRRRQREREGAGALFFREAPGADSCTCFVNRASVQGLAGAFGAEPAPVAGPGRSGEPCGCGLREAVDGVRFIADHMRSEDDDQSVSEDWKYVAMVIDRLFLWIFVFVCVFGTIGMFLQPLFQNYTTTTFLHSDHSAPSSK
T1 sequence (P43681 whole entry): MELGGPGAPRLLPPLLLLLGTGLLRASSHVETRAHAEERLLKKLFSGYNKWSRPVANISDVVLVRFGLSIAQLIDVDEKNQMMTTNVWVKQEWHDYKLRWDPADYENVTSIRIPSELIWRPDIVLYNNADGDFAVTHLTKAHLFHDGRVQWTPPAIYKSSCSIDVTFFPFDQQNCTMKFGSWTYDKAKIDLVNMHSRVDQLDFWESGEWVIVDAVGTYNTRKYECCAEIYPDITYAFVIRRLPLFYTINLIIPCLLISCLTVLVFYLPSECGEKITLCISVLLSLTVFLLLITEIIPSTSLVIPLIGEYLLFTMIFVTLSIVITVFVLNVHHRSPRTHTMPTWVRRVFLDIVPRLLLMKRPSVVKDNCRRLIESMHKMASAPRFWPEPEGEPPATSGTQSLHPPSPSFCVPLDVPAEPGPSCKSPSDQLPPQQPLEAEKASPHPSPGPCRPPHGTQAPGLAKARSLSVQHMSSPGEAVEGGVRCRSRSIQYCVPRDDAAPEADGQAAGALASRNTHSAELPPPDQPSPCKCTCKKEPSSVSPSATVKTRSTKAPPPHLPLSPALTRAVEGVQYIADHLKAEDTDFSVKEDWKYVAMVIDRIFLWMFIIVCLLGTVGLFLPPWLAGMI
Sequence of Neuronal acetylcholine receptor; alpha3/beta4 (P30926 whole entry): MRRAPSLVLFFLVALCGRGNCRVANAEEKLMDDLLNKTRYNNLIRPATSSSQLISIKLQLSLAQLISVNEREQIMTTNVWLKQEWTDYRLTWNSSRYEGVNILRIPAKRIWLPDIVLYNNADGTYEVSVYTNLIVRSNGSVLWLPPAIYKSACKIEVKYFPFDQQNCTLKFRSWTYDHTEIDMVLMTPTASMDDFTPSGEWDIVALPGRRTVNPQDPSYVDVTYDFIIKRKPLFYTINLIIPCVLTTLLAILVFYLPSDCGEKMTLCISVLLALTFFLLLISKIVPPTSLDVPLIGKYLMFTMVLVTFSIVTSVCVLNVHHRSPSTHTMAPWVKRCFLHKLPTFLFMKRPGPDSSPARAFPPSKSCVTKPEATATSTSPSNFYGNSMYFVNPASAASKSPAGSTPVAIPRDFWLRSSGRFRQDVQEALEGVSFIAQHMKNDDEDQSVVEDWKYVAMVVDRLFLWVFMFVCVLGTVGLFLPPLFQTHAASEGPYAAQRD
Sequence of Neuronal acetylcholine receptor; alpha3/beta4 (P32297 whole entry): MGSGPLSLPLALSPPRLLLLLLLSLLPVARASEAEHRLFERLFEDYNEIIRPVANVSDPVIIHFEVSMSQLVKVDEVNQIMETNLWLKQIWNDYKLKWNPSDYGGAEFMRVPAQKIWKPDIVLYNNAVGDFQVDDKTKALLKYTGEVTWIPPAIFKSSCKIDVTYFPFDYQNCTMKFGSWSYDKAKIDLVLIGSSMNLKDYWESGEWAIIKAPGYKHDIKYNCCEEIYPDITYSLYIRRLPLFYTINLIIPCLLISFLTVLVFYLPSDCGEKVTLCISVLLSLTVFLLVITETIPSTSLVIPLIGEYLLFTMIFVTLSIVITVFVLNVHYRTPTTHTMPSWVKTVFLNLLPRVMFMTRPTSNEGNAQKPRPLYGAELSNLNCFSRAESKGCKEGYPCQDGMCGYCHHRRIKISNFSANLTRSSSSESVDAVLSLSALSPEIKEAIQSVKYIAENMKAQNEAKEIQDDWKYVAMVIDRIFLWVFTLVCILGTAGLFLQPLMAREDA

For `Cc1cccc(NC(=O)c2cc(N)ccc2N2CCCCC2)n1`, the half-inhibitory concentration (IC50) in assay [1] was 46.3 µM; in assay [2], 14.4 µM. For the same compound, the residual activity in assay [3] came out at 47.7%.

On to `Cc1cccc(C(C)C)c1NC(=O)c1ccccc1NS(C)(=O)=O`, for which, in assay [3], the residual activity came to 74%.

In the case of `COC(=O)c1ccc(N2CCN(C)CC2)c(NC(=O)Cc2ccccc2)c1`, the residual activity in assay [3] was 71%.

With `CC(=O)N1CCN(c2ccc(NC(=O)c3cccnc3)cc2Cl)CC1`, the residual activity in assay [3] is 103%. Consider `C=CCN1C(=O)[C@](O)(CC(=O)c2ccco2)c2cc(Cl)ccc21`, for which the results for the half-inhibitory concentration (IC50) in assay [1] and in assay [2] were over 100 µM and 6.1 µM, respectively. Moreover, the residual activity in assay [3] stood at 51.1%. Consider `CC(=O)Nc1ccc2c(c1)nc(CN1CCCCC1)n2C`, for which, in assay [3], the residual activity stood at 86.2%. As for `C=C(C)CN1C(=O)C(O)(CC(=O)c2ccccn2)c2ccccc21` (configuration not stated), the residual activity in assay [3] was determined as 59.9%. On to `O=C(CN1CCN(c2ccccc2)CC1)NCc1ccco1`, for which the residual activity in assay [3] came to 59.8%.

For `O=C(CSc1nnc(-c2ccccn2)o1)Nc1cccc2ccccc12`, the residual activity in assay [3] was found to be 76.2%. In the case of `O=C(O)CCC(=O)Nc1cc(F)ccc1F`, the residual activity in assay [3] was determined as 83.3%. Take `O=C(CN1CCN(S(=O)(=O)c2ccc(F)cc2)CC1)Nc1ccccc1F`: the results for the IC50 in assay [1] and in assay [2] were 19.6 µM and 9.8 µM, respectively. Besides, in assay [3], the residual activity amounted to 46.9%. Regarding `Cn1c(=O)c2[nH]c(CN3CCc4ccccc4C3)nc2n(C)c1=O`, the residual activity in assay [3] came to 83.2%. Turning to `O=C(Nc1ccc(F)cc1)C1CC(=O)n2c(nc3ccccc32)N1` (configuration not stated), the residual activity in assay [3] was 72.5%.

On to `O=C(O)c1cc(NCc2cccs2)ccc1N1CCOCC1`, for which the IC50 was over 100 µM in assay [1] and 20.6 µM in assay [2]. For the same compound, the residual activity in assay [3] was 49.5%.
